The record followed here is patent publication US20240116926A1, “HETEROAROMATIC COMPOUNDS” (AstraZeneca AB, priority 2022, published 2024).

Converted amounts (≈) assume the structure as drawn.

One data set deals with TEAD4(217-434) (Homo sapiens (Human), UniProt Q15561). The data set can be described thus: TEAD4 FRET. It is filed as binding. The following applies: depalmitoylated, biotinylated TEAD4(217-434), FAM labelled Probe A, 120 min at 25° C. The procedure: Compounds were dosed with a final DMSO concentration of 1% (v/v). Compound IC50 values were assessed following a 10-point, half-log10 dilution schema starting at 100 μM compound concentration. Specifically, human TEAD protein from TEAD4(217-434) was cloned into an overexpression vector, expressed as an N-terminal HIS-TEV-Avi-tagged fusion protein in E coli, and subsequently purified, then protein was chemically depalmitoylated & biotinylated. The assay was performed in 384-well LV plates (384-well black, medium binding, PS, HIBASE, GREINER #784076) and run in the presence and absence of the compound of interest. Each well of 5 μL assay mixture contained 10 mM Tris-HCl (pH 7.5), 100 mM NaCl, 0.05 mM EDTA, 1 mM TECP, 1% DMSO, 0.03% Pluronic acid F127, 20 nM dePal Avi TEAD4 (217-434)-depalmitoylated & biotinylated protein, 0.8 nM Streptavidin Terbium cryptate (CisBio #610SATLB), 625 nM FAM labelled Probe A. Reactions were incubated at 25° C. for 120 min before reading on a PHERASTAR FSX Plate Reader (337 520 490 HTRF module required) (Supplier BMP).
Sequence of TEAD4(217-434) (Q15561 217-434): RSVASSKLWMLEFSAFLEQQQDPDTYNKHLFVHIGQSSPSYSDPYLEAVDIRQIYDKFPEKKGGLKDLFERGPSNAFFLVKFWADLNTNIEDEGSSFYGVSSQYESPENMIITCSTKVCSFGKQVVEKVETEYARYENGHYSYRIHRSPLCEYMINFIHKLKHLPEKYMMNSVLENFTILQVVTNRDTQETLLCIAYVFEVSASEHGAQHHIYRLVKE
The data file from the PHERAstar FSX contains both the acceptor (520 nm) and donor channels (490 nm) (“Channel A”=acceptor channel (520 nm), “Channel B”=donor channel (490 nm)). The ratio of the donor and acceptor (Channel A/Channel B) is calculated within Genedata Assay Analyzer.
Probe A is 3′,6′-dihydroxy-3-oxo-N-{8-[2-(5-{2-[4-(trifluoromethyl)anilino]phenyl}-2H-tetrazol-2-yl)acetamido]octyl}-3H-spiro[[2]benzofuran-1,9′-xanthene]-5-carboxamide;

Data set [1] deals with MCF7-Luciferase cell line. Kind of data set: Control reporter (MCF7-Luciferase). It is filed as cell-based. The following applies: MCF7-Luciferase cells, luciferase activity after 24 hours. Here is the method:
(iii) Control Reporter (MCF7-Luciferase)
MCF7-Luciferase cell line was obtained from […] (catalog number SC050-L) and was maintained in DMEM containing 10% fetal calf serum, 2 mM glutamine. Cells were grown in a humidified incubator at 37° C. with 5% CO2. Cells were distributed to flat bottom white polystyrene TC treated 384 well plates at a density of 3,500 cells/well in 30 μL. Cells were incubated for 24 hours at 37° C. with 5% CO2. Cells were acoustically dosed using an Echo 555, with compounds serially diluted in 100% DMSO. Plates were incubated for an additional 24 hours. Cells were examined for luciferase activity through the addition of 30 μL Bright-Glo luciferase (Promega catalog number E2620). Plates were incubated for 10 minutes at room temperature and luminescence was read using Tecan plate reader. The data obtained with each compound was exported to […] software to perform curve fitting analysis.

Data set [2] can be described thus: Protein binding measurements in human plasma (Hu PPB). The format is in vitro ADME. To be noted: equilibrium dialysis for 18 hours, fraction unbound. Here is the method: The automated equilibrium dialysis assay in human plasma uses the RED (Rapid Equilibrium Dialysis) Device and sample handling. The assay generally runs over two to three days including delivery of results. After dialysis for 18 hours, plasma and buffer samples are prepared for analysis by liquid chromatography and mass spectrometry. Samples are generally tested in singlicates and quantified by LC/MSMS by using a 7-point calibration curve in plasma. The compounds are pooled together in plasma pools up to 10 compounds. Three reference compounds are used in each run, Propranolol, Metoprolol and Warfarin. Warfarin is used as a control in each pool and Propranolol and Metoprolol are placed randomly in each run. An in-house Excel macro is used for preparation of files for the robot and the mass spectrometer and is also used for the calculations of fraction unbound (fu %) in plasma.

The nature of data set [3]: Solubility (thermodynamic, shake-flask). It is filed as physicochemical. The following applies: thermodynamic from solid; aqueous phosphate buffer (pH 7.4), 24 hours at 25° C. The procedure: The thermodynamic solubility of a research compound is measured under standard conditions. It is a shake-flask approach that uses 10 mM DMSO solutions which are supplied from the Compound Managements liquid store and is a high throughput method. The dried compounds are equilibrated in an aqueous phosphate buffer (pH 7.4) for 24 hours at 25° C., the portion with the dissolved compound is then separated from the remains. The solutions are analyzed and quantified using UPLC/MS/MS, QC-samples are incorporated in each assay-run to ensure the quality of the assay.

In a further data set the test system is MCF7-Tead cell line. The data set can be described thus: TEAD reporter assay. The format is cell-based. The following applies: MCF7-Tead cells, luciferase activity after 24 hours. The procedure:
MCF7-Tead cell line was obtained from BPS BIOSCIENCE (catalog number 60618) and was maintained in DMEM containing 10% fetal calf serum, 2 mM glutamine, and 400 μg/ml G418. Cells were grown in a humidified incubator at 37° C. with 5% CO2. Cells were distributed to flat bottom white polystyrene TC treated 384 well plates at a density of 3,500 cells/well in 30 uL. Cells were incubated for 24 hours at 37° C. with 5% CO2. Cells were acoustically dosed using an Echo 555, with compounds serially diluted in 100% DMSO. Plates were incubated for an additional 24 hours. Cells were examined for luciferase activity through the addition of 30 μL Bright-Glo luciferase (Promega catalog number E2620). Plates were incubated for 10 minutes at room temperature and luminescence was read using Tecan plate reader. The data obtained with each compound was exported to […] software to perform curve fitting analysis.
On the technique in general: A reporter such as luciferase makes a cellular process visible.

`C=CC(=O)N1CC[C@@H](c2nc(-c3ccc(C(F)(F)F)cc3)c3ccccc3n2)C1` (racemic) [Comparative Example C, 1-(3-{4-[4-(trifluoromethyl)phenyl]-2-quinazolinyl}-1-pyrrolidinyl)-2-propen-1-one, reference compound]: the IC50 (as a rule, the concentration that gives 50% inhibition) against TEAD4(217-434) turned out to be 0.055 µM; in data set [1], 22.7 µM; in the data set on MCF7-Tead cell line, 0.26 µM. The “Hu PPB (% free)” value in data set [2] came to 1.1 % free. Besides, the solubility (commonly the concentration that dissolves in the medium under given conditions) at 24 h in data set [3] was 66 µM (≈ 26.2 µg/mL).

For the compound `C=CC(=O)N[C@H]1CCN(c2nc(-c3ccc(C(F)(F)F)cc3)nc3ccccc23)C1` (racemic) [Comparative Example D, N-(1-{2-[4-(trifluoromethyl)phenyl]-4-quinazolinyl}-3-pyrrolidinyl)acrylamide, reference compound], the figures for the IC50 (at TEAD4(217-434); in data set [1]; with MCF7-Tead cell line) were 2.9 µM, over 31.7 µM and 1.78 µM, respectively. For the same compound, the “Hu PPB (% free)” value in data set [2] is 0.2 % free. The compound further registered a solubility at 24 h in data set [3] of 0.6 µM (≈ 0.247 µg/mL).

As to `C=C(F)C(=O)N1C[C@H](F)[C@H](Nc2nnc(-c3ccc(C(F)(F)F)cc3)c3ncccc23)C1` [Example 5, 2-fluoro-1-((3S,4R)-3-fluoro-4-((8-(4-(trifluoromethyl)phenyl)pyrido[2,3-d]pyridazin-5-yl)amino)pyrrolidin-1-yl)prop-2-en-1-one], the values for the IC50 (at TEAD4(217-434); in data set [1]; in the data set on MCF7-Tead cell line) were 0.027 µM, over 31.7 µM and 0.062 µM, respectively. Also, the “Hu PPB (% free)” value in data set [2] amounted to 7.7 % free. This compound also had a solubility at 24 h in data set [3] of 244 µM (≈ 110 µg/mL).

For `C=C(F)C(=O)N1C[C@H](F)[C@H](Nc2nnc(-c3ccc(C(F)(F)F)cc3)c3cccnc23)C1` [Example 6, 2-fluoro-1-((3S,4R)-3-fluoro-4-((5-(4-(trifluoromethyl)phenyl)pyrido[2,3-d]pyridazin-8-yl)amino)pyrrolidin-1-yl)prop-2-en-1-one], the IC50 against TEAD4(217-434) was 0.078 µM; in data set [1], 29.9 µM; in the data set on MCF7-Tead cell line, 0.297 µM. Besides, the “Hu PPB (% free)” value in data set [2] amounted to 6.2 % free. This compound also registered a solubility at 24 h in data set [3] of 158 µM (≈ 71 µg/mL).

Consider `C=CC(=O)N1CC[C@H](Nc2nnc(-c3ccc(C(F)(F)F)cc3)c3ncccc23)C1` [Example 7, (S)-1-(3-((8-(4-(trifluoromethyl)phenyl)pyrido[2,3-d]pyridazin-5-yl)amino)pyrrolidin-1-yl)prop-2-en-1-one], for which the figures for the IC50 (at TEAD4(217-434); in data set [1]; in the data set on MCF7-Tead cell line) were 0.033 µM, 28.4 µM and 0.081 µM, respectively. Also, the “Hu PPB (% free)” value in data set [2] is 9.0 % free. For the same compound, the solubility at 24 h in data set [3] was determined as 8.6 µM (≈ 3.56 µg/mL).

With `C=CC(=O)N1CC[C@H](Nc2nnc(-c3ccc(C(F)(F)F)cc3)c3cccnc23)C1` [Example 8, (S)-1-(3-((5-(4-(trifluoromethyl)phenyl)pyrido[2,3-d]pyridazin-8-yl)amino)pyrrolidin-1-yl)prop-2-en-1-one], the 50% inhibitory concentration (IC50) was 0.056 µM at TEAD4(217-434), over 31.7 µM in data set [1] and 0.072 µM in the data set on MCF7-Tead cell line. Also, in data set [2], the “Hu PPB (% free)” value worked out at 12.0 % free. This compound also yielded a solubility at 24 h in data set [3] of 32 µM (≈ 13.2 µg/mL).

Turning to `C=CC(=O)N1CC[C@H](Nc2nnc(-c3ccc(C(F)(F)F)cc3)c3cccc(F)c23)C1` [Example 13, (S)-1-(3-((8-fluoro-4-(4-(trifluoromethyl)phenyl)phthalazin-1-yl)amino)pyrrolidin-1-yl)prop-2-en-1-one], the IC50 is 0.041 µM against TEAD4(217-434), over 31.7 µM in data set [1] and 0.03 µM with MCF7-Tead cell line. Also, in data set [2], the “Hu PPB (% free)” value is given as 6.1 % free. This compound also registered a solubility at 24 h in data set [3] of 40 µM (≈ 17.2 µg/mL).

Turning to `C=CC(=O)N1C[C@H](O)[C@H](Nc2nnc(-c3ccc(C(F)(F)F)cc3)c3cccc(F)c23)C1` [Example 14, 1-((3R,4S)-3-((8-fluoro-4-(4-(trifluoromethyl)phenyl)phthalazin-1-yl)amino)-4-hydroxypyrrolidin-1-yl)prop-2-en-1-one], the values for the IC50 (against TEAD4(217-434); in data set [1]; in the data set with MCF7-Tead cell line) were 0.049 µM, 19.2 µM and 0.026 µM, respectively. Moreover, the “Hu PPB (% free)” value in data set [2] is listed as 7.7 % free. The solubility at 24 h in data set [3] was 39 µM (≈ 17.4 µg/mL).

As to `C=CC(=O)N1C[C@@H](CO)[C@H](Nc2nnc(-c3ccc(C(F)(F)F)cc3)c3cccc(F)c23)C1` [Example 15, 1-((3S,4R)-3-((8-fluoro-4-(4-(trifluoromethyl)phenyl)phthalazin-1-yl)amino)-4-(hydroxymethyl)pyrrolidin-1-yl)prop-2-en-1-one], the figures for the IC50 (on TEAD4(217-434); in data set [1]; in the data set with MCF7-Tead cell line) were 0.025 µM, 30.8 µM and 0.015 µM, respectively. Besides, the “Hu PPB (% free)” value in data set [2] turned out to be 11.0 % free. In data set [3], this compound had a solubility at 24 h of 135 µM (≈ 62.2 µg/mL).

On to `C=CC(=O)N1CC[C@H](Nc2nnc(-c3ccc(C(F)(F)F)cn3)c3cccnc23)C1` [Example 16, (S)-1-(3-((5-(5-(trifluoromethyl)pyridin-2-yl)pyrido[2,3-d]pyridazin-8-yl)amino)pyrrolidin-1-yl)prop-2-en-1-one], for which the figures for the IC50 (against TEAD4(217-434); in data set [1]; with MCF7-Tead cell line) were 0.27 µM, over 31.7 µM and 0.354 µM, respectively. In addition, the “Hu PPB (% free)” value in data set [2] was determined as 25.0 % free. The compound also yielded a solubility at 24 h in data set [3] of 114 µM (≈ 47.2 µg/mL).

As for `C=CC(=O)N1CC[C@H](Nc2nnc(-c3ccc(C(F)(F)F)cn3)c3ccccc23)C1` [Example 18, (S)-1-(3-((4-(5-(trifluoromethyl)pyridin-2-yl)phthalazin-1-yl)amino)pyrrolidin-1-yl)prop-2-en-1-one], the IC50 was 0.2 µM on TEAD4(217-434), over 31.7 µM in data set [1] and 0.255 µM in the data set with MCF7-Tead cell line. For the same compound, the “Hu PPB (% free)” value in data set [2] was found to be 10.0 % free. This compound also displayed a solubility at 24 h in data set [3] of 47 µM (≈ 19.4 µg/mL).

On to `C=CC(=O)N1C[C@H](CO)[C@@H](Nc2nnc(-c3ccc(C(F)(F)F)cc3)c3ccccc23)C1` [Example 22, 1-((3S,4R)-3-(hydroxymethyl)-4-((4-(4-(trifluoromethyl)phenyl)phthalazin-1-yl)amino)pyrrolidin-1-yl)prop-2-en-1-one], for which the IC50 at TEAD4(217-434) is 0.95 µM; in data set [1] it was over 31.7 µM; in the data set on MCF7-Tead cell line, 0.957 µM. In addition, the “Hu PPB (% free)” value in data set [2] is listed as 5.4 % free. The compound further returned a solubility at 24 h in data set [3] of 65 µM (≈ 28.8 µg/mL).

Consider `C=CC(=O)N1C[C@@H](CO)[C@H](Nc2nnc(-c3ccc(C(F)(F)F)cc3)c3ccccc23)C1` [Example 23, 1-((3R,4S)-3-(hydroxymethyl)-4-((4-(4-(trifluoromethyl)phenyl)phthalazin-1-yl)amino)pyrrolidin-1-yl)prop-2-en-1-one], for which the IC50 was 0.042 µM at TEAD4(217-434), over 31.7 µM in data set [1] and 0.014 µM in the data set with MCF7-Tead cell line. Moreover, the “Hu PPB (% free)” value in data set [2] is given as 4.7 % free. The solubility at 24 h in data set [3] was determined as 48 µM (≈ 21.2 µg/mL).
